Source: patent publication US12227494B2, “Polymorphisms of HM30181 mesylate” (ATHENEX R&D, LLC, priority 2020, dated 2025)

What was measured:
Assay type in all cases: physicochemical
[1] = Estimated solubility of HM30181 mesylate Type A starting material in solvents (stepwise solvent addition); conditions: for solubility: thermodynamic from solid
[2] = Cyclic DSC heating followed by XRPD / 1H-NMR (thermal stability of solid form)
Description: Based on ^1H-NMR data, decomposition of Type A initiated after heating to 200° C. (see FIG. 14).
XRPD was performed using a Panalytical X'Pert3™ Powder XRPD and on a Si zero-background holder. The 2θ position was calibrated against a Panalytical™ 640 Si powder standard. Details of XRPD used in the experiments are listed below in Table 20.
In some studies, a cyclic DSC method was used. In such cycling DSC methods temperature was ramped from ambient to 150° C. at a heating rate of 10° C./min using N2 as the purge gas, then cooled by 10° C. to 25° C. This temperature cycle repeated twice (see Table 22).
(§1) Proton NMR were obtained using a Varian 200M™ NMR in deuterated DMSO (DMSO-d6).

[3] = 1H-NMR check for disproportionation or degradation; conditions: slurry in DMF at 150° C., 5 days
Text: At large scale, a slurry of HM30181 mesylate Type A starting material in methanol at ambient conditions generated a mixture of HM30181 mesylate Type B and HM30181 mesylate Type A after 9 days (see FIG. 32). After 14 days, the slurry in methanol generated a HM30181 mesylate Type N polymorph. […] A scaled-up slurry of HM30181 mesylate Type A starting material in DMA yielded HM30181 mesylate Type E after 6 days (see FIG. 35). […] A scaled-up slurry of HM30181 mesylate Type A starting material in DMF at 50° C. yielded HM30181 mesylate Type F rather than the expected HM30181 mesylate Type G after 9 days (see FIG. 36). […] This slurry was heated in an attempt to generate HM30181 mesylate Type G. A scaled-up slurry of HM30181 mesylate Type A starting material in DMF at 100° C. yielded HM30181 mesylate Type F after 2 days (see FIG. 37). A scaled-up slurry of HM30181 mesylate Type A starting material in DMF at 150° C. yielded a previously unobserved XRPD pattern after 5 days (see FIG. 37).
By 1H-NMR, HM30181 mesylate Type E contained DMA, HM30181 mesylate Type F contains DMF, and HM30181 mesylate Type N contains MeOH.
as §1

With `COc1cc2c(cc1OC)CN(CCc1ccc(-n3nnc(-c4cc(OC)c(OC)cc4NC(=O)c4cc(=O)c5ccccc5o4)n3)cc1)CC2.CS(=O)(=O)O` [HM30181 mesylate Type A, HM30181 mesylate] the solubility ([1]; organic solvent or mixture, solvent 1,4-Dioxane) was less than 1 mg/mL, the solubility ([1]; organic solvent or mixture, solvent 2-MeTHF) was less than 1 mg/mL and the solubility ([1]; organic solvent or mixture, solvent ACN) was less than 1 mg/mL. The solubility ([1]; organic solvent or mixture, solvent Acetone) was less than 1 mg/mL, the solubility ([1]; organic solvent or mixture, solvent CHCl3) was 5 to 6.7 mg/mL and the solubility ([1]; organic solvent or mixture, solvent Cumene) was less than 1 mg/mL. For the same compound, the solubility ([1]; organic solvent or mixture, solvent Cyclohexane) was less than 1 mg/mL, the solubility ([1]; organic solvent or mixture, solvent DCM) was less than 1 mg/mL and the solubility ([1]; organic solvent or mixture, solvent DMA) was 3.2 to 4.8 mg/mL. The solubility ([1]; organic solvent or mixture, solvent DMSO) was 22 to 44 mg/mL, the solubility ([1]; organic solvent or mixture, solvent EtOAc) was less than 0.9 mg/mL and the solubility ([1]; organic solvent or mixture, solvent EtOH) was less than 0.9 mg/mL. It also gave a solubility ([1]; organic solvent or mixture, solvent IPA) of less than 1 mg/mL, a solubility ([1]; organic solvent or mixture, solvent IPOAc) of less than 1 mg/mL and a solubility ([1]; organic solvent or mixture, solvent MEK) of less than 1 mg/mL. The solubility ([1]; organic solvent or mixture, solvent MIBK) was less than 1 mg/mL, the solubility ([1]; organic solvent or mixture, solvent MTBE) was less than 1 mg/mL and the solubility ([1]; organic solvent or mixture, solvent MeOH) was 1.7 to 2 mg/mL. For the same compound, the solubility ([1]; organic solvent or mixture, solvent NMP) was 4.8 to 6.3 mg/mL, the solubility ([1]; organic solvent or mixture, solvent T-BuOH) was less than 1 mg/mL and the solubility ([1]; organic solvent or mixture, solvent THF) was less than 1 mg/mL. For the same compound, the solubility ([1]; organic solvent or mixture, solvent Toluene) was less than 1 mg/mL, the solubility ([1]; organic solvent or mixture, solvent n-Heptane) was less than 1 mg/mL and the solubility ([1]; organic solvent or mixture, solvent n-Propanol) was less than 1 mg/mL. The solubility ([1]; organic solvent or mixture, solvent n-Propyl acetate) was less than 1 mg/mL, the “Dissolved after heating to 50° C. for 2 hours?” value (“Dissolved after heating” below) ([1]; solvent 1,4-Dioxane) was “No” and the “Dissolved after heating” value ([1]; solvent 2-MeTHF) was “No”. The “Dissolved after heating” value ([1]; solvent ACN) was “Yes”, the “Dissolved after heating” value ([1]; solvent Acetone) was “No” and the “Dissolved after heating” value ([1]; solvent Cumene) was “No”. For the same compound, the “Dissolved after heating” value ([1]; solvent Cyclohexane) was “No”, the “Dissolved after heating” value ([1]; solvent DCM) was “Yes” and the “Dissolved after heating” value ([1]; solvent EtOAc) was “No”. For the same compound, the “Dissolved after heating” value ([1]; solvent EtOH) was “Almost”, the “Dissolved after heating” value ([1]; solvent H2O) was “No” and the “Dissolved after heating” value ([1]; solvent IPA) was “No”. The “Dissolved after heating” value ([1]; solvent IPOAc) was “No”, the “Dissolved after heating” value ([1]; solvent MEK) was “No” and the “Dissolved after heating” value ([1]; solvent MIBK) was “No”. The “Dissolved after heating” value ([1]; solvent MTBE) was “No”, the “Dissolved after heating” value ([1]; solvent T-BuOH) was “No” and the “Dissolved after heating” value ([1]; solvent THF) was “No”. For the same compound, the “Dissolved after heating” value ([1]; solvent Toluene) was “No”, the “Dissolved after heating” value ([1]; solvent n-Heptane) was “No” and the “Dissolved after heating” value ([1]; solvent n-Propanol) was “No”. The “Dissolved after heating” value ([1]; solvent n-Propyl acetate) was “No”, the solubility ([1]; water, solvent H2O) was less than 1 mg/mL and the “Heating temperature after which decomposition initiated (1H-NMR)” value ([2]; 1H-NMR of heated sample) was 200 °C. For the same compound, the “XRPD after cyclic DSC” value ([2]; heated to 110° C.) was “no XRPD change”, the “XRPD after cyclic DSC” value ([2]; heated to 185° C.) was “reduced crystallinity” and the “XRPD after cyclic DSC” value ([2]; heated to 200° C.) was “amorphous material”. For the same compound, the “Chemical stability in DMF slurry by 1H-NMR” value [3] was “resulted in degradation”.
